pKi: −log10 of the molar value. Numbered stars: 1 amine (or outer) side, 2 acyl side, 3 side chain; on linkers, the order of the positions; unused ones are H or OH. Bridge positions count the residues as written; N and C are the ends. Square brackets hold non-standard residues; d marks the D form. Peptide text beside a SMILES is read from it. * marks the point of attachment. hhCys(CH2CO) = O=C([C@H](CCCSCC(=O)[*:3])N[*:1])[*:2]; X9 = CC(C)(S)CNCCN(CCCCC(=O)*)CC(C)(C)S; X3 = CC(C)(S)CNCCN(CCCCCN*)CC(C)(C)S; NMeF = CN[C@@H](Cc1ccccc1)C(=O)O; hCys = N[C@@H](CCS)C(=O)O
Molecular target: T1, somatostatin receptors (Rattus norvegicus, UniProt P30680)
T1 construct: endogenous in cells; host or cells: AR42J rat pancreatic tumor cell line, membrane preparation
T1 sequence (P30680 whole entry): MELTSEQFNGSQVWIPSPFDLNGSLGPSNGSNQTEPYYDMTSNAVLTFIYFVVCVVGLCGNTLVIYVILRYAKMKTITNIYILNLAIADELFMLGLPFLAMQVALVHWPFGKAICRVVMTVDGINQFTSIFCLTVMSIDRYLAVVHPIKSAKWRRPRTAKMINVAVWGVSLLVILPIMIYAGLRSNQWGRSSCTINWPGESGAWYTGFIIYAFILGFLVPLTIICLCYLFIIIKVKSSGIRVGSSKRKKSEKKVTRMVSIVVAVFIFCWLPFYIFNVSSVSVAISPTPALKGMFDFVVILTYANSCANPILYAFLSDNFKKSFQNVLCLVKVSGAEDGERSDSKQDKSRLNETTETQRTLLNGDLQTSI
Experiment: Inhibition of binding of [125I-Tyr11]somatostatin-14 to AR42J rat pancreatic tumor cell membranes
Conditions: uncomplexed peptides, displacement of [125I-Tyr11]somatostatin-14 (0.5 nM)
Method: Inhibition of Binding of [^125 I-Tyr^11 ]somatostatin-14 to AR42J Rat Pancreatic Tumor Cell Membranes
The rat pancreatic tumor cell line AR42J which expresses the somatostatin receptor was cultured in Dulbecco's minimal essential media (DMEM) supplemented with 10% fetal bovine serum (FBS) and 8 mM glutamine in a humidified 5% CO2 atmosphere at 37° C. in T-flasks. Harvested cells were homogenized in cold 50 mM Tris-HCl buffer (pH 7.4) and the homogenate then centrifuged at 39,000 g for 10 min at 4° C. Pellets were washed once with buffer and then resuspended in an ice-cold solution of 10 mM Tris-HCl (pH 7.4). Equal aliquots of this cell membrane preparation were incubated with [^125 I-Tyr^11 ]somatostatin-14 (at a final concentration of 0.5 nM and 750,000 cpm/mL, at a specific activity of 2000 Ci/mmol, Amersham, Arlington Heights, Ill.) and peptide or peptide-rheniumcomplex at a final concentration of from 10^-11 M to 10^-6 M in a solution of 50 mM HEPES (pH 7.4) containing 1% bovine serum albumin (BSA), 5 mM MgCl2, Trasylol (200,000 International Units), bacitracin (0.02 mg/mL) and phenylmethylsulfonylfluoride (0.02 mg/mL) for 25 min at 30° C. Using a filtration manifold, this mixture was filtered through a polyethyleneimine-washed GC/F filter (Whatman, Maidstone, England), and the residue remaining on the filter washed thrice with 5 mL cold HEPES buffer. The filter and a sample of the filter washings were then counted in a gamma counter. To assess non-specific binding, the assay was performed in the presence of unlabeled somatostatin-14 at 200 nM. Data analysis including Hill plots of the data provided inhibition constants (see Bylund & Yamamura, "Methods of receptor binding", in Methods in Neurotransmitter Receptor Analysis, Yamamura et al., eds., Raven Press: New York, 1990).

pKi | Compound
8.01 | C[C@@H](O)[C@@H]1NC(=O)[C@H](CCCCN)NC(=O)[C@@H](Cc2c[nH]c3ccccc23)NC(=O)[C@H](Cc2ccccc2)NC(=O)[C@H](Cc2ccccc2)NC(=O)CSCC[C@@H](C(=O)O)NC(=O)[C@H](Cc2ccccc2)NC1=O [CH2 CO.FFWD KTF.Hcy] ({CH2CO}-FF[dW]KTF[hCys]-OH; thioether N-7)
9.39 | C[C@@H](O)[C@@H]1NC(=O)[C@H](CCCCN)NC(=O)[C@@H](Cc2c[nH]c3ccccc23)NC(=O)[C@H](Cc2ccccc2)NC(=O)[C@H](Cc2ccccc2)NC(=O)CSCCC[C@@H](C(N)=O)NC(=O)[C@H](Cc2ccccc2)NC1=O [CH2 CO.FFWD KTF.Hhc.amide] (FF[dW]KTF[hhCys(CH2CO)]-NH2; lactam N-7)
8.72 | C[C@@H](O)[C@@H]1NC(=O)[C@H](CCCCN)NC(=O)[C@@H](Cc2c[nH]c3ccccc23)NC(=O)[C@H](Cc2ccccc2)NC(=O)[C@H](Cc2ccccc2)NC(=O)CSC[C@@H](C(=O)NCCCCCN(CCNCC(C)(C)S)CC(C)(C)S)NC(=O)[C@H](Cc2ccccc2)NC1=O [CH2 CO.FFWD KTFC.[BAM]] ({CH2CO}-FF[dW]KTFC-X3; thioether N-7)
9.35 | C[C@@H](O)[C@@H]1NC(=O)[C@H](CCCCN)NC(=O)[C@@H](Cc2c[nH]c3ccccc23)NC(=O)[C@H](Cc2ccccc2)NC(=O)[C@H](Cc2ccccc2)NC(=O)CSC[C@@H](C(N)=O)NC(=O)[C@H](Cc2ccccc2)NC1=O [CH2 CO.FFWD KTFC.amide] ({CH2CO}-FF[dW]KTFC-NH2; thioether N-7)
8.40 | C[C@@H](O)[C@@H]1NC(=O)[C@H](CCCCN)NC(=O)[C@@H](Cc2c[nH]c3ccccc23)NC(=O)[C@H](Cc2ccccc2)NC(=O)[C@H](Cc2ccccc2)NC(=O)CSC[C@@H](C(=O)O)NC(=O)[C@H](Cc2ccccc2)NC1=O [CH2 CO.FFWD KTFC] ({CH2CO}-FF[dW]KTFC-OH; thioether N-7)
9.80 | C[C@@H](O)[C@@H]1NC(=O)[C@H](CCCCN)NC(=O)[C@@H](Cc2c[nH]c3ccccc23)NC(=O)[C@H](Cc2ccc(O)cc2)NC(=O)[C@H](Cc2ccccc2)NC(=O)CSC[C@@H](C(N)=O)NC(=O)[C@H](Cc2ccccc2)NC1=O [CH2 CO.FYWD KTFC.amide] ({CH2CO}-FY[dW]KTFC-NH2; thioether N-7)
8.57 | C[C@@H](O)[C@@H]1NC(=O)[C@H](Cc2ccccc2)NC(=O)[C@H]([C@@H](C)O)NC(=O)[C@H](CCCCN)NC(=O)[C@@H](Cc2c[nH]c3ccccc23)NC(=O)[C@H](Cc2ccccc2)NC(=O)[C@H](Cc2ccccc2)NC(=O)[C@H](CC(N)=O)NC(=O)CSC[C@@H](C(=O)O)NC1=O [CH2 CO.NFFWD KTFTC] ({CH2CO}-NFF[dW]KTFTC-OH; thioether N-9)
8.59 | CC(C)[C@@H]1NC(=O)[C@H](CCCCN)NC(=O)[C@@H](Cc2c[nH]c3ccccc23)NC(=O)[C@H](Cc2ccc(O)cc2)NC(=O)[C@H](Cc2ccccc2)N(C)C(=O)[C@H](CCC(=O)NCCCCCN(CCNCC(C)(C)S)CC(C)(C)S)NC1=O [cyclo.(N--CH3)F.YWD KV.E.[BAM], cyclo.(N--CH3)Phe--Tyr--D--Trp--Lys--Val--Glu(BAM)] (cyclo([NMeF]Y[dW]KVE(X3)))
9.34 | CC(C)[C@@H]1NC(=O)[C@H](CCCCN)NC(=O)[C@@H](Cc2c[nH]c3ccccc23)NC(=O)[C@H](Cc2ccc(O)cc2)NC(=O)[C@H](Cc2ccccc2)N(C)C(=O)[C@H](CCCCNC(=O)CCCCN(CCNCC(C)(C)S)CC(C)(C)S)NC1=O [cyclo.(N--CH3)F.YWD KV.K.[BAT], cyclo.(N--CH3)Phe--Tyr--D--Trp--Lys--Val--Lys(BAT)] (cyclo([NMeF]Y[dW]KVK(X9)))

Compound | pKi
CC(C)[C@@H]1NC(=O)[C@H](CCCCN)NC(=O)[C@@H](Cc2c[nH]c3ccccc23)NC(=O)[C@H](Cc2ccc(O)cc2)NC(=O)[C@H](CS)NC(=O)[C@H](CS)NC1=O [cyclo.CYWD KVC, cyclo Cys--Tyr--D--Trp--Lys--Val--Cys] (cyclo(CY[dW]KVC)) | 9.37

Source: patent publication US6017512A, “Radiolabeled peptides” (Diatide, Inc., priority 1997, dated 2000)
